Assay [1] addresses T1, Tyrosine-protein phosphatase non-receptor type 11 (Homo sapiens, UniProt Q06124).
T1 sequence (Q06124 whole entry): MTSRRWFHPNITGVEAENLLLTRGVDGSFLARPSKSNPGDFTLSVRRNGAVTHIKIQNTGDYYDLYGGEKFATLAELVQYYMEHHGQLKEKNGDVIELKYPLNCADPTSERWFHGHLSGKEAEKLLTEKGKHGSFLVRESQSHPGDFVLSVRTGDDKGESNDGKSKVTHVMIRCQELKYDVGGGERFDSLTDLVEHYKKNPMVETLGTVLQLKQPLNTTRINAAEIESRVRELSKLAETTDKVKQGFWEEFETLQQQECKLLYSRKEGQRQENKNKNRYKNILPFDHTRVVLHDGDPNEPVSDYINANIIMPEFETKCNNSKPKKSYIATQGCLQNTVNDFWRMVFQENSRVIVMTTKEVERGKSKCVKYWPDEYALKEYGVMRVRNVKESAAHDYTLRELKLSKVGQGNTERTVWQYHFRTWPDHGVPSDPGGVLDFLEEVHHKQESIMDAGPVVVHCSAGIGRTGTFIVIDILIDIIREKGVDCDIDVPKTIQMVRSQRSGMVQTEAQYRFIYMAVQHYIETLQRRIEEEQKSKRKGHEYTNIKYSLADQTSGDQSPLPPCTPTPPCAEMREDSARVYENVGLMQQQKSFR
Nature of the assay: SHP2 phosphatase inhibition, dose response, selectivity assay for STEP inhibitor project, biochemical (AID 602367). It counts as functional. The following applies: read-out: IC50_Mean.

Assay [2] deals with T2, Tyrosine-protein phosphatase non-receptor type 5 (Homo sapiens, UniProt P54829).
T2 sequence (P54829 whole entry): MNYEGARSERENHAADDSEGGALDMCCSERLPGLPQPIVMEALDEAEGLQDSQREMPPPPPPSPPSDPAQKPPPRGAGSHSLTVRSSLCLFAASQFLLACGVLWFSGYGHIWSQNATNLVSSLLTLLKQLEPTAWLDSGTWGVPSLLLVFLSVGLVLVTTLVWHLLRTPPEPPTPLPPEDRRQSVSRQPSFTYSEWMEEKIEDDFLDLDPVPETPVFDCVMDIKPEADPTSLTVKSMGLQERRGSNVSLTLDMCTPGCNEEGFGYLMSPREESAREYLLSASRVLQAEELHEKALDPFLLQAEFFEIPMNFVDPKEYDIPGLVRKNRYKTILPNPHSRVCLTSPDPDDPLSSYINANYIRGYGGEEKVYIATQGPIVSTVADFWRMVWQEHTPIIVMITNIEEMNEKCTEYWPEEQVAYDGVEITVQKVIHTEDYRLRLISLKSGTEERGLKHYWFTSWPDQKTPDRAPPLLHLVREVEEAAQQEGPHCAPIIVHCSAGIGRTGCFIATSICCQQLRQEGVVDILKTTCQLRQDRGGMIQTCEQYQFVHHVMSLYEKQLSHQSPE
Nature of the assay: STEP phosphatase inhibitors, confirmation, biochemical, fluorescence intensity, uHTS hits (AID 602372). It counts as functional. Conditions: read-out: IC50_Mean.

Assay [3] has as its target Dual specificity protein phosphatase 3 (Homo sapiens, UniProt P51452). The assay can be described thus: VHR phosphatase inhibition, dose response, selectivity assay for STEP inhibitor project, biochemical (AID 602374). Format: functional. The following applies: read-out: IC50_Mean.
Assay [4] addresses Nuclear receptor subfamily 5 group A member 2 (Homo sapiens, UniProt O00482). It counts as functional, cell-based.
In assay [5] the target is Steroidogenic factor 1 (Homo sapiens, UniProt Q13285). The assay can be described thus: Counterscreen for inverse agonists of the liver receptor homolog-1 (LRH-1; NR5A2): Luminescence-based cell-based high throughput dose response assay to identify inverse agonists of the Steroidogenic Factor 1 Nuclear Receptor (SF1; NR5A1). It counts as functional. For orientation: A counterscreen serves to expose hits that act by an unwanted route or on another target.

The nature of assay [6]: StAR promoter reporter inhibition counter-screen, dose response, counter-screen for LRH-1 inverse agonist project, cell-based, luminescence, luciferase reporter (AID 651969). Format: functional.
Assay [7] addresses T3, DNA repair and recombination protein RAD54-like (Homo sapiens, UniProt Q92698).
T3 sequence (Q92698 whole entry): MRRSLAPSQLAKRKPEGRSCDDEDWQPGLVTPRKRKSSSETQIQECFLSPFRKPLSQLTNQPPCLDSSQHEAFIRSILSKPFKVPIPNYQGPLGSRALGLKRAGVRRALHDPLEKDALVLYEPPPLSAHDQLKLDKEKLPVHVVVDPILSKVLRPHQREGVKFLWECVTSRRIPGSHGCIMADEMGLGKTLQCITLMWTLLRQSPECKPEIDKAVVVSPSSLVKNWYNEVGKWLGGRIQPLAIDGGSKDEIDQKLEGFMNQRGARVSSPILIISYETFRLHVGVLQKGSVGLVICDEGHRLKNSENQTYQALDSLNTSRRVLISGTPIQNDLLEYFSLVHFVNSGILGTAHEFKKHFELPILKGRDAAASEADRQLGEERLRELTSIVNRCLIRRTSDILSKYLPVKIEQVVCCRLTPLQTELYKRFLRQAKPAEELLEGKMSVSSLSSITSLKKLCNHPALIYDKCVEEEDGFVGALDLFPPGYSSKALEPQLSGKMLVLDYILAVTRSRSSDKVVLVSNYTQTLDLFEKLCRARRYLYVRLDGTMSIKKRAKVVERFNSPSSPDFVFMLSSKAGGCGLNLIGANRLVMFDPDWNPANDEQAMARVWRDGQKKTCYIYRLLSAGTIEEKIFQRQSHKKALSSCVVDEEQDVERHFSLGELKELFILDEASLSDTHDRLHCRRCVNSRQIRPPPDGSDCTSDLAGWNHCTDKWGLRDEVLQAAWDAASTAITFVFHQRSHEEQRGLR
Nature of the assay: inhibitors of human RAD54 branch migration, confirmation, biochemical, fluorescence, cherry-picked samples, dose series (AID 651657). Format: functional.

Assay [8] deals with T4, DNA repair protein RAD52 homolog (Homo sapiens, UniProt P43351).
T4 sequence (P43351 whole entry): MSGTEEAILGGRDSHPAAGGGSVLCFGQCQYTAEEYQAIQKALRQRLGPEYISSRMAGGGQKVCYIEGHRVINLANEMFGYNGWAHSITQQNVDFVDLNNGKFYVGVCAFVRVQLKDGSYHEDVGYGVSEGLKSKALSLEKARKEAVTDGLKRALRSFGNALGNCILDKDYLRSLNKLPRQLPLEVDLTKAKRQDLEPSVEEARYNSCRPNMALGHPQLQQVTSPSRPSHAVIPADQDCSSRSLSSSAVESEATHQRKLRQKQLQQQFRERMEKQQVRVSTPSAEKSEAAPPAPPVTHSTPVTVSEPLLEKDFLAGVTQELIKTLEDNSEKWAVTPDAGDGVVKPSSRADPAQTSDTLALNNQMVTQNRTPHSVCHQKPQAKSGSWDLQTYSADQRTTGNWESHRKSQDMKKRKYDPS
It counts as functional, biochemical.

For assay [9], the target named is Photoreceptor-specific nuclear receptor (Homo sapiens, UniProt Q9Y5X4). Format: functional, cell-based.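 Further: CHO-S cells with Gal4-NCOR and VP16-NR2E3 two-hybrid luciferase reporter.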
Assay [10] concerns the target T5, Fatty acid synthase (Homo sapiens, UniProt P49327). Nature of the assay: FAS thioesterase domain inhibitors, dose response, biochemical, endpoint fluorescence intensity, uHTS hits (AID 624327).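 Further: fluorescence from hydrolysis of an O-methyl fluorescein acyl ester substrate by the enzyme.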 Format: functional.
Assay [11] addresses T5, Fatty acid synthase. Nature of the assay: FAS thioesterase domain inhibitors, dose response, biochemical, kinetic fluorescence intensity (AID 624326).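 Further: rate of fluorescence rise from hydrolysis of a fluorogenic O-methyl fluorescein ester substrate.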 Format: functional.
Assay [12] is described as follows: intracellular Trypanosoma cruzi inhibitors in host cells – cell-based, plate reader, cherry-pick samples, set 3, dose response (AID 651818).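 Further: compounds incubated with infected cells for about four days.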 It counts as functional.
In assay [13] the target is T6, Polyadenylate-binding protein 1 (Homo sapiens, UniProt P11940). Nature of the assay: PABP1 MLLE–PAM2 interaction inhibitors, dose response, miRNA deadenylation inhibitor project, biochemical, fluorescence polarization, Cy5-PAM2 peptide, secondary (AID 602260). It counts as functional. Conditions: read-out: IC50_Mean. (Fluorescence polarisation rises when a labelled molecule tumbles more slowly, as on binding a larger partner.)

The target in assay [14] is T6, Polyadenylate-binding protein 1. The assay can be described thus: PABP1 MLLE–PAM2 binding inhibitor potency, dose response, biochemical, fluorescence polarization, FITC-PAM2 peptide (AID 602259). Format: functional. The following applies: read-out: IC50_Mean.
The target in assay [15] is T7, Caspase-6 (Homo sapiens, UniProt P55212).
T7 sequence (P55212 whole entry): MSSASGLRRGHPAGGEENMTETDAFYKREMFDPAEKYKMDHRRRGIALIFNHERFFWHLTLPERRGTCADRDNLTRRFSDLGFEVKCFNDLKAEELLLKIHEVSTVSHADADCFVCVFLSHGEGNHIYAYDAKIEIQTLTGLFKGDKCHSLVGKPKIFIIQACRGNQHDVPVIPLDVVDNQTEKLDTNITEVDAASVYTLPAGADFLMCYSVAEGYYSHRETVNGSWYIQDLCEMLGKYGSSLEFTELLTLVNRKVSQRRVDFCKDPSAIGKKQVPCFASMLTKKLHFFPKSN
Nature of the assay: human caspase-6 inhibitors, dose response, biochemical, VEID-R110 fluorescence, cherry-pick (AID 720632).

Assay [16] deals with T8, Histone-lysine N-methyltransferase NSD2 (Homo sapiens, UniProt O96028).
T8 sequence (O96028 whole entry): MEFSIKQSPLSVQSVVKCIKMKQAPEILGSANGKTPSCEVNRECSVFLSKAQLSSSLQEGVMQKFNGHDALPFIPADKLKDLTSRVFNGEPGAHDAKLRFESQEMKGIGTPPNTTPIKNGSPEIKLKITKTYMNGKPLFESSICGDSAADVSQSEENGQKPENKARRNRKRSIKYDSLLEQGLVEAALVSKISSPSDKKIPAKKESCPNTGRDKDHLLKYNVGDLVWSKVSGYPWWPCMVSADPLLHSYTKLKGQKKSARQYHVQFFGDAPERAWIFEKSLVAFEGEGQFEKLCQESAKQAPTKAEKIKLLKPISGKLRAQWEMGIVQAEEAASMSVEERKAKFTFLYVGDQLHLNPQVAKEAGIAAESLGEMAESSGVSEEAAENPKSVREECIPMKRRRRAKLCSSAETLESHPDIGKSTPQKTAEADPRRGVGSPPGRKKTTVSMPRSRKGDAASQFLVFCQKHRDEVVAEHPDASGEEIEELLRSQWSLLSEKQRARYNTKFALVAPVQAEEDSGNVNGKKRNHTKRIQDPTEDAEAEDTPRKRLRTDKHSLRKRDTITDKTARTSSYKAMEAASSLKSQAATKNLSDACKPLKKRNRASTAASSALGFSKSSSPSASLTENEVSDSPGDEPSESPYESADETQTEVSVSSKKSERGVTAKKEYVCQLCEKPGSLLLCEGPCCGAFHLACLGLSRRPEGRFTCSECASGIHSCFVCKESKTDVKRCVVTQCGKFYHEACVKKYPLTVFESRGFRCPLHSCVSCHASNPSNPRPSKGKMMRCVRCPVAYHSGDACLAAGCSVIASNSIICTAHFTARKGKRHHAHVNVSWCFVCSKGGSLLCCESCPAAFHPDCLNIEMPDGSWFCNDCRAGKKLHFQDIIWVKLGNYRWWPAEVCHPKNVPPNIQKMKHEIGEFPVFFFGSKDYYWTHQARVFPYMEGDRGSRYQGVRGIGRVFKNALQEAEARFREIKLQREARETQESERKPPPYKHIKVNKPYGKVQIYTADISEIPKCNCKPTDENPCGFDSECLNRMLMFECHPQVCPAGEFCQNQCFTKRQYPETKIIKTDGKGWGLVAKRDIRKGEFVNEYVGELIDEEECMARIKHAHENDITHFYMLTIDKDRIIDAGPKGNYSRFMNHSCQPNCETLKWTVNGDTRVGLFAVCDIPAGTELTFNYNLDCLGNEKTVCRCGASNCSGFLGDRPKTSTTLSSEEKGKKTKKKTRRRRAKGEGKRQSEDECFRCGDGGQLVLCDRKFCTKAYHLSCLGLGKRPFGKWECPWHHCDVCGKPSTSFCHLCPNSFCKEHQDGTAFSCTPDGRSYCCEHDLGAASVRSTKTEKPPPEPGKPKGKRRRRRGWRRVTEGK
Format: biochemical.

Calls of active or inactive are those of the source.

T5 sequence (P49327 whole entry, the tested form may be a part): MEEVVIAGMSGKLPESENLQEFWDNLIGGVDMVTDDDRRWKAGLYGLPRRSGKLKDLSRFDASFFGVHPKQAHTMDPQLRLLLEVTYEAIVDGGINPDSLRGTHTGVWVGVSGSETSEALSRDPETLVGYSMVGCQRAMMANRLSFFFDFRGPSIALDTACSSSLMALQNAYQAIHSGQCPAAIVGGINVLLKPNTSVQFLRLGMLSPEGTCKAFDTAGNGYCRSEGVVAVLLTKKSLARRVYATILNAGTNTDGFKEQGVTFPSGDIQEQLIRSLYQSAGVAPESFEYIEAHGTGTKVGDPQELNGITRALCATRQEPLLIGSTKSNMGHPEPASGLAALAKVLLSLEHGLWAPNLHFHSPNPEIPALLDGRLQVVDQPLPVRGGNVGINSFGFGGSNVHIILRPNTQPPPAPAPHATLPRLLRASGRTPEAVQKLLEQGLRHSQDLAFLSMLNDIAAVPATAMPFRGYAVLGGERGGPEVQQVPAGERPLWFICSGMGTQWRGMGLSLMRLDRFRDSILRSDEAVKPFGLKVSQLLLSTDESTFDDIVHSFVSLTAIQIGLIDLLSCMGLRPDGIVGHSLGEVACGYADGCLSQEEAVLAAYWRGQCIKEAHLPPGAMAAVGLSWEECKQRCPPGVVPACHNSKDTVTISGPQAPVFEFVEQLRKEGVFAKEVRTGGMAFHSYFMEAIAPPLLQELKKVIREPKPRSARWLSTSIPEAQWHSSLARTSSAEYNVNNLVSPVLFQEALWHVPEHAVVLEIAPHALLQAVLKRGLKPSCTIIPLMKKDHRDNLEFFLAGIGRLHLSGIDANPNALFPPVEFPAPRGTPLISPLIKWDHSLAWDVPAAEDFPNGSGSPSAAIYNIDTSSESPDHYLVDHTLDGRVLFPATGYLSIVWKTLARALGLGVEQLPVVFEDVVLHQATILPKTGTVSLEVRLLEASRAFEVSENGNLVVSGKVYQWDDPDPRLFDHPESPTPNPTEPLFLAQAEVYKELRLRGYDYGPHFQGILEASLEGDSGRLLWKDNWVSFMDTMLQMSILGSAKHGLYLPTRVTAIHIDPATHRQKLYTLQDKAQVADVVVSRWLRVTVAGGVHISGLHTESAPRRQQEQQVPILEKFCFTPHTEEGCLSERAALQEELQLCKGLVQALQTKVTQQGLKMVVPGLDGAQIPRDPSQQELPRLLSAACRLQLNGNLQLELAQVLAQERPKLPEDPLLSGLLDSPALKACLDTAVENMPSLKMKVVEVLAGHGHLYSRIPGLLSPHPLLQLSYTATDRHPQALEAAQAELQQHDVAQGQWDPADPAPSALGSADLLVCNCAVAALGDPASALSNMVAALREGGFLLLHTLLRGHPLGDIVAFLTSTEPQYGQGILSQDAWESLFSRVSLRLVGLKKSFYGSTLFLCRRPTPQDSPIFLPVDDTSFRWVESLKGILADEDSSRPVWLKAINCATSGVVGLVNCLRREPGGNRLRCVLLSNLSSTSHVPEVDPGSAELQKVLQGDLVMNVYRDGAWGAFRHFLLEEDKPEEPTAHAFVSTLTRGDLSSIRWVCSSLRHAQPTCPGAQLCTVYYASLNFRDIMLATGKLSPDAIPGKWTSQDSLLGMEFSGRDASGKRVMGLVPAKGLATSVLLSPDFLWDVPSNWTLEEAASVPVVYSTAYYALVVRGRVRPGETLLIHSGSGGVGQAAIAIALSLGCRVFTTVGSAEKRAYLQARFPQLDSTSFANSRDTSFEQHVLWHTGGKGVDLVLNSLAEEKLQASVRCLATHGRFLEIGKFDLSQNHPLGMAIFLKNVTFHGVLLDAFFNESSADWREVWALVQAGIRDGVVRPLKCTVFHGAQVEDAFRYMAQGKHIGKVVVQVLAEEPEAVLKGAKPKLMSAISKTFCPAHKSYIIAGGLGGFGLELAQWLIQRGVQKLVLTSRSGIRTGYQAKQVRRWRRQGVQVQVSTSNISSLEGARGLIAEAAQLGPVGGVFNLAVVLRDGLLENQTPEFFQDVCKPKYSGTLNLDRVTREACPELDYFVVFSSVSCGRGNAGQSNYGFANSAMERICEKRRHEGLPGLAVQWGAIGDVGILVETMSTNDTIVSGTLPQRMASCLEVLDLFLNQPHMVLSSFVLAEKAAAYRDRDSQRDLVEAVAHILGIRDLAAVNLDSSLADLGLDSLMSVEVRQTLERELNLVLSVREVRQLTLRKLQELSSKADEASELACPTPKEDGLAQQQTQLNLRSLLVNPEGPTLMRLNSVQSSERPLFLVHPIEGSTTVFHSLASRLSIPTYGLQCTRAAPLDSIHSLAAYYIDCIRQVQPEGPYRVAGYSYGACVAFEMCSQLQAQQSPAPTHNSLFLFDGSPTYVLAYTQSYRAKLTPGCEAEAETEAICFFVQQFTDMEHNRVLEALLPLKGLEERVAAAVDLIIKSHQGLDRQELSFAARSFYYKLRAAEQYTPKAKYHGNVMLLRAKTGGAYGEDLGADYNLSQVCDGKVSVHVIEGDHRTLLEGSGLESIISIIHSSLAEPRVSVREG
Sequence of Dual specificity protein phosphatase 3 (P51452 whole entry): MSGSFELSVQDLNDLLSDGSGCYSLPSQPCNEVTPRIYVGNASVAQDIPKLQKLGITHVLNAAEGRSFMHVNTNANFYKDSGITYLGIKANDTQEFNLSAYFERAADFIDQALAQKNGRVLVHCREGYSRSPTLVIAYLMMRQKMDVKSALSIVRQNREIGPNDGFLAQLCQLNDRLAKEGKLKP
Sequence of Steroidogenic factor 1 (Q13285 whole entry): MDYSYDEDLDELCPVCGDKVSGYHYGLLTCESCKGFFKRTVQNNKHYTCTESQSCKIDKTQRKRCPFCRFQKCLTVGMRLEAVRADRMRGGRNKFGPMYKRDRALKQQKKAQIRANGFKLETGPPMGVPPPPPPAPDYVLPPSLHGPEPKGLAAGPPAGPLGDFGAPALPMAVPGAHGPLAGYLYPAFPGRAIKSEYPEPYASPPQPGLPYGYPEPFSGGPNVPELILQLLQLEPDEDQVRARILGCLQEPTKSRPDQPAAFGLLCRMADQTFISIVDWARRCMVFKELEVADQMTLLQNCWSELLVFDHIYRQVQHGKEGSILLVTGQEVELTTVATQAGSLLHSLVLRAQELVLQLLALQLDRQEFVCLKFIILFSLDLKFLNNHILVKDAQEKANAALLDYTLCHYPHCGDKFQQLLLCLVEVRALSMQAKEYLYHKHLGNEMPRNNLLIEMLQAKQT
Sequence of Nuclear receptor subfamily 5 group A member 2 (O00482 whole entry): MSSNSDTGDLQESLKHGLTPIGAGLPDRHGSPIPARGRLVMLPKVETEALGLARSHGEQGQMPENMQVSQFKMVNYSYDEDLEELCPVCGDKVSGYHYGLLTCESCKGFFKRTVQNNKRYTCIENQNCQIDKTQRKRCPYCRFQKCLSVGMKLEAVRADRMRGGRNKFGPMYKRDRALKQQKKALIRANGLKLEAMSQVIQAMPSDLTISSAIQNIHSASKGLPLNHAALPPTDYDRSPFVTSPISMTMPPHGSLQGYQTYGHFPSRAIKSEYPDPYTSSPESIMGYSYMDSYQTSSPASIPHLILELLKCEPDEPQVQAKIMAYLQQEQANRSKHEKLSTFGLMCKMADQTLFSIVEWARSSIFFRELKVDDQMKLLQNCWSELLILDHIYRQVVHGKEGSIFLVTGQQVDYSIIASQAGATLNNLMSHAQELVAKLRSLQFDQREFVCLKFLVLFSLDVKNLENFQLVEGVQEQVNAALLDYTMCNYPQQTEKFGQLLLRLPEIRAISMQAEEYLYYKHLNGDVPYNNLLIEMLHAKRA
T6 sequence (P11940 whole entry): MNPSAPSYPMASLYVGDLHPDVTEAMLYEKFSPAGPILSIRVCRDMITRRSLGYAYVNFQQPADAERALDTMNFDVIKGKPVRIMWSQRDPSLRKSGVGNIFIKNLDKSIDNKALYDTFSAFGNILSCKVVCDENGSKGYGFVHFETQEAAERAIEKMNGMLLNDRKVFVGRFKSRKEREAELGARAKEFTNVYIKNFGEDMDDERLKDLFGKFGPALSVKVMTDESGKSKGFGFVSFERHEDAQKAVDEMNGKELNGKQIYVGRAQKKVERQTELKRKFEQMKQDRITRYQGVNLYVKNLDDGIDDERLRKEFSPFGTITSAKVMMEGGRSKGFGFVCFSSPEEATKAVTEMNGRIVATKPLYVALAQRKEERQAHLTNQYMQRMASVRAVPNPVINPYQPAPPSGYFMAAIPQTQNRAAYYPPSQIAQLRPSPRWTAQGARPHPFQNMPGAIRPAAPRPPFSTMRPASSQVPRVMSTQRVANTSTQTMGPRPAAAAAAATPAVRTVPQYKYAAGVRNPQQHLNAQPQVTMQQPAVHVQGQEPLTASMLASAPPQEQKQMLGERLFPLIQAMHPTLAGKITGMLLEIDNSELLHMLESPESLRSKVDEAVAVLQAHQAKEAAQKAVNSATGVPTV
Sequence of Photoreceptor-specific nuclear receptor (Q9Y5X4 whole entry, the tested form may be a part): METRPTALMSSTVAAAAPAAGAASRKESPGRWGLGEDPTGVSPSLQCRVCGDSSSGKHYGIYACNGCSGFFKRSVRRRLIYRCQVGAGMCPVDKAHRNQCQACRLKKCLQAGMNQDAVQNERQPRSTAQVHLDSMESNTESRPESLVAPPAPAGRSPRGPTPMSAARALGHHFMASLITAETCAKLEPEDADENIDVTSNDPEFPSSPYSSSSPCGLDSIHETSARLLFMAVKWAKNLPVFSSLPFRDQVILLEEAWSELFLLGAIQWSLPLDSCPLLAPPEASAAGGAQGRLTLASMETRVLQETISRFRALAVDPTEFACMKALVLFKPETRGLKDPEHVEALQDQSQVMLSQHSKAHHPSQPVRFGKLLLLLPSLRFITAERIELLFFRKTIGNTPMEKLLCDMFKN

`Cc1ccc(C(=S)N2CCN(Cc3ccccc3)CC2)s1`: the results for the IC50 in assay [1], in [2] and in assay [3] were 3.1 µM (active), 16.5 µM (active) and 0.997 µM (active), respectively.

As for `O=C(CN1C(=O)CCC1=O)Nc1ccc(Br)cc1`, the IC50 in assay [4] was 11.1 µM (inactive); in assay [5], 8.78 µM (active); in assay [6], 35.9 µM (inactive).

Consider `O=[N+]([O-])c1cc(F)c(N2CCCCCC2)cc1N1CCNCC1`, for which the figures for the IC50 in assay [4], in [5] and in assay [6] were 3.99 µM (active), 6.27 µM (active) and 35 µM (inactive), respectively.

For the compound `CN(C)CCNc1ncnc2sc(-c3ccccc3)cc12`, the AC50 in assay [7] is 27.2 µM (active); in [8] it was 9 µM (active).

As for `CCCCCCCCCCCCN1[C@@H](CC(=O)O)c2cc(F)ccc2S1(=O)=O`, the figures for the IC50 in [9], in [10] and in assay [11] were 4.28 µM (active), 2.83 µM (active) and 2.62 µM (active), respectively.

On to `C[C@@H]1CN([C@H](C)CO)C(=O)c2cccc(NC(=O)c3nc4ccccc4s3)c2O[C@H]1CN(C)S(=O)(=O)c1ccc(Cl)cc1`, for which the AC50 in [12] was 0.964 µM (active).

Take `C[C@H](CO)N1C[C@H](C)[C@H](CN(C)S(=O)(=O)c2ccc(F)cc2)Oc2ccc(NS(=O)(=O)c3ccc(F)cc3)cc2C1=O`: in assay [12], the AC50 is 7.7 µM (active).

In the case of `C[C@H]1CN([C@@H](C)CO)C(=O)Cc2cc(NC(=O)Nc3cccc4ccccc34)ccc2O[C@@H]1CN(C)CC1CCCCC1`, the AC50 in [12] was 4.35 µM (active).

With `Nc1ccc2c(O)cc(S(=O)(=O)O)cc2c1`, the IC50 in assay [13] was > 66 µM (inactive); in [1] it was 1.04 µM (active); in assay [14], > 66 µM (inactive); in [2], 33.4 µM (inactive); in assay [3], 3.43 µM (active). Moreover, the AC50 in assay [15] is 2.15 µM (active); in assay [16], 6.49 µM (active).

As a reminder, the AC50 is the concentration at which the activity in the assay is half-maximal.

(Values after ChEMBL document CHEMBL1201862, “PubChem BioAssay data set” (2004).)
